Measured values published in publication PMC11637875, “Discovery of novel PARP1/NRP1 dual-targeting inhibitors with strong antitumor potency” (Frontiers in Pharmacology, 2024).

How the values were obtained:
[1] = molecular target: BLK (Homo sapiens, UniProt P51451); experiment: Selectivity profile (123 kinase panel); assay type: biochemical
[2] = molecular target: CK1γ1 (Homo sapiens, UniProt Q9HCP0); experiment: Selectivity profile (123 kinase panel); assay type: biochemical
[3] = molecular target: MST2 (Homo sapiens, UniProt Q13188); experiment: Selectivity profile (123 kinase panel); assay type: biochemical
[4] = molecular target: AMPKα1/β1/γ1 (Homo sapiens, UniProt P54619+Q13131+Q9Y478); experiment: Selectivity profile (123 kinase panel); assay type: biochemical
[5] = molecular target: MLK3 (Homo sapiens, UniProt Q16584); experiment: Selectivity profile (123 kinase panel); assay type: biochemical
[6] = molecular target: EPHB2 (Homo sapiens, UniProt P29323); experiment: Selectivity profile (123 kinase panel); assay type: biochemical
[7] = molecular target: HCK (Homo sapiens, UniProt P08631); experiment: Selectivity profile (123 kinase panel); assay type: biochemical
[8] = molecular target: CHK2 (Homo sapiens, UniProt O96017); experiment: Selectivity profile (123 kinase panel); assay type: biochemical
Sequence of CHK2 (O96017 whole entry): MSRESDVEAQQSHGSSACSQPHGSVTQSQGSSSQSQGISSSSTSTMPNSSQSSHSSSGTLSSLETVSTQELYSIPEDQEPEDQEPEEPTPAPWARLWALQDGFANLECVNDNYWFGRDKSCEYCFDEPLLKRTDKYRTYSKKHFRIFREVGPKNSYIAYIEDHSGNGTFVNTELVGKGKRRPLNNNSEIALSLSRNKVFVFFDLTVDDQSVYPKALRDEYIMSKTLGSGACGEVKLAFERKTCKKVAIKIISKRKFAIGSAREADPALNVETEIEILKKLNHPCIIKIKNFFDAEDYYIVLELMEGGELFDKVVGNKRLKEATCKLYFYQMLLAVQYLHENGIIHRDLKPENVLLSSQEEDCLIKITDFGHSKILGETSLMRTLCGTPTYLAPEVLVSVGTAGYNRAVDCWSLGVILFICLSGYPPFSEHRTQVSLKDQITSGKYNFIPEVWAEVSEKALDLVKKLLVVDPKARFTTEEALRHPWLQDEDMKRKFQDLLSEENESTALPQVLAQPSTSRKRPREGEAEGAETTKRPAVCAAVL

[9] = molecular target: JNK2 (Homo sapiens, UniProt P45984); experiment: Selectivity profile (123 kinase panel); assay type: biochemical
Sequence of JNK2 (P45984 whole entry): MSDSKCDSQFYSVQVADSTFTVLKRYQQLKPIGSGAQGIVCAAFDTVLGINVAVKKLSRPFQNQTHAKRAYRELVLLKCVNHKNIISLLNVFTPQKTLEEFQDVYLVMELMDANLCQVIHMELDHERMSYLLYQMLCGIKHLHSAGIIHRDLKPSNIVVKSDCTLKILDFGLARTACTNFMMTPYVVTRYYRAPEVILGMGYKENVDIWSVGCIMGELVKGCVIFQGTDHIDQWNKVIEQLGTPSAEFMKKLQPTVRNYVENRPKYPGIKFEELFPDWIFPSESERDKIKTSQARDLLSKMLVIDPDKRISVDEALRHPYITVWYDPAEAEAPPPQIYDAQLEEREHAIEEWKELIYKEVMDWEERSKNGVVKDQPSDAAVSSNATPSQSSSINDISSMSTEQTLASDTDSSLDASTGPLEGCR

[10] = molecular target: CLK1 (Homo sapiens, UniProt P49759); experiment: Selectivity profile (123 kinase panel); assay type: biochemical
Sequence of CLK1 (P49759 whole entry): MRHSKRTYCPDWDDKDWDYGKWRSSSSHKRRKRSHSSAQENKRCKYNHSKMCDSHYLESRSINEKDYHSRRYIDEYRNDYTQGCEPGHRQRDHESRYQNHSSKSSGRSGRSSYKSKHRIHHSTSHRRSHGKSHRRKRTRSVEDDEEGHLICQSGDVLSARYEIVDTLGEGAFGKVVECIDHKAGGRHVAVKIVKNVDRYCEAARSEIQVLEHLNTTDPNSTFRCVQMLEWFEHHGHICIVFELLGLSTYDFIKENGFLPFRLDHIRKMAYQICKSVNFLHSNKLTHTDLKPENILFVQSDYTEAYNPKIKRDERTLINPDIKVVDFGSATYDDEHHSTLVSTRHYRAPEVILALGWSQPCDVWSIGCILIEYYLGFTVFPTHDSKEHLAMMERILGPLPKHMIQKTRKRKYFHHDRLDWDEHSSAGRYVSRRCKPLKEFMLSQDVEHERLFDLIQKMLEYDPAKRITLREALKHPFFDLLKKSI

[11] = molecular target: EGFR (Homo sapiens, UniProt P00533); experiment: Selectivity profile (123 kinase panel); assay type: biochemical
[12] = molecular target: BMX (Homo sapiens, UniProt P51813); experiment: Selectivity profile (123 kinase panel); assay type: biochemical
[13] = molecular target: ABL1 (Homo sapiens, UniProt P00519); experiment: Selectivity profile (123 kinase panel); assay type: biochemical
[14] = molecular target: KHS (Homo sapiens, UniProt Q9Y4K4); experiment: Selectivity profile (123 kinase panel); assay type: biochemical
[15] = molecular target: FLT3 (Homo sapiens, UniProt P36888); experiment: Selectivity profile (123 kinase panel); assay type: biochemical
[16] = molecular target: EPHA6 (Homo sapiens, UniProt Q9UF33); experiment: Selectivity profile (123 kinase panel); assay type: biochemical
[17] = system: HEL-299; experiment: Cytotoxicity on normal human cells (MTT); assay type: cell-based; conditions: HEL-299 normal human cells
Experimental: (§1) Cell viability was measured by MTT assays. MDA-MB-231, MCF-10A, L02, FHC, PNT1A, HEL-299, and HEK-293 cell lines were seeded in 96-well plates at 5 ×10^4 cells/well and incubated overnight. Different concentrations of PPNR1-5 or positive control were then added to each well and cultured at 37°C for 72 h. Afterward, the medium was removed. MTT (5 mg/mL) was dissolved in phosphate-buffered saline (PBS) and filter-sterilized, and then, 20 μL of the prepared MTT solution was added to each well, and the cells were incubated for another 4 h until a purple precipitate was visible. The supernatant was removed by centrifugation, and DMSO (150 μL/well) was added to dissolve the insoluble crystals. The absorbance was determined using an enzyme-linked immunosorbent assay reader at a test wavelength of 570 nm. The assays were performed three times in a parallel manner. The non-linear regression was used to plot a Dose-Response-Inhibition to determine the value of the IC50. The cell inhibition rate was calculated at 2 μM concentration of compound treatment. The data were analyzed using GraphPad Prism 9 software.

[18] = system: FHC; experiment: Cytotoxicity on normal human cells (MTT); assay type: cell-based
Experimental: as §1

[19] = system: HEK-293; experiment: Cytotoxicity on normal human cells (MTT); assay type: cell-based; conditions: HEK293, HEK-293 normal human cells
Experimental: as §1

[20] = system: L02; experiment: Cytotoxicity on normal human cells (MTT); assay type: cell-based
Experimental: as §1

[21] = system: MCF-10A; experiment: Cytotoxicity on normal human cells (MTT); assay type: cell-based; conditions: MCF-10A normal human mammary epithelial cells
Experimental: as §1

[22] = system: PNT1A; experiment: Cytotoxicity on normal human cells (MTT); assay type: cell-based
Experimental: as §1

[23] = In vivo pharmacokinetic studies; set-up: species or system SD rats; conditions: Sprague-Dawley (SD), rat, plasma, po, 10 mg/kg
Experimental: Blood samples (0.25 mL) were collected at 0.25, 0.5, 1, 2, 4, 8, 16, and 24 h after administration and centrifuged to obtain the plasma fraction. In a 96-well plate, the plasma sample (50 μL) was transferred, and the internal standard methanol/acetonitrile (1:1, v/v) solution (200 μL) was added. After vortexing for 5 min, the mixture was centrifuged (12,000 rpm, 5 min) and the supernatant was obtained (60.0 μL). Liquid chromatography and tandem mass spectrometry (LC-MS/MS) system was used to study pharmacokinetics. The data were processed by Phoenix.

[24] = molecular target: FAK (Homo sapiens, UniProt Q05397); experiment: Selectivity profile (123 kinase panel); assay type: biochemical
Sequence of FAK (Q05397 whole entry, species assumed, canonical isoform): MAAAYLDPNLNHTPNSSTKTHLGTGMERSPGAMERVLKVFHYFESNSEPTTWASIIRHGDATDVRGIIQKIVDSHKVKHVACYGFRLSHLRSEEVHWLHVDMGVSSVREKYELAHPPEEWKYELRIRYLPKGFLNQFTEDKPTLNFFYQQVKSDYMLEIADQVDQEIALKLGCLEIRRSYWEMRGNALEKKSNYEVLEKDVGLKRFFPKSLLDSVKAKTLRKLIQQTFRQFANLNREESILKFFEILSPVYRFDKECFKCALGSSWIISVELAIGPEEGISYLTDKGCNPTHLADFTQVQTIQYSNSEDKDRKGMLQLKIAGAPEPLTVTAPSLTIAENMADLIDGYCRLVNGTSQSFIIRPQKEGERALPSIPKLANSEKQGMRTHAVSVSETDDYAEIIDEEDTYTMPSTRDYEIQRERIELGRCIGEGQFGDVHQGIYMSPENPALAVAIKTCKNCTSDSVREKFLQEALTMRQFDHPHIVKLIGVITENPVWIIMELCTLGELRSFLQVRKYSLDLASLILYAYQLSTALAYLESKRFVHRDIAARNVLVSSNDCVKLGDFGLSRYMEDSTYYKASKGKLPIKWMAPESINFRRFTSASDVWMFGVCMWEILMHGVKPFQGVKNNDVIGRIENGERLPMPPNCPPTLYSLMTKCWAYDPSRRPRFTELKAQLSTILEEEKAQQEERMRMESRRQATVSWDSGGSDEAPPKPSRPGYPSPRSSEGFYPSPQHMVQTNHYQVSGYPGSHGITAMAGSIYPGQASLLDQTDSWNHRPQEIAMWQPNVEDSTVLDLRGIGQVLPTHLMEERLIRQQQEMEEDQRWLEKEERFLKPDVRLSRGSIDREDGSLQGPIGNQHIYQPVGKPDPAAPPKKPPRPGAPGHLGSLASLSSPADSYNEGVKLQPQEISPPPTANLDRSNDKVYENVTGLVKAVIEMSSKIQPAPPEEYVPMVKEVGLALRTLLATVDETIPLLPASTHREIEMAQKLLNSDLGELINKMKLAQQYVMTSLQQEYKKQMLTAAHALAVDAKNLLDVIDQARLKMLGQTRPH

[25] = molecular target: PARP15 (Homo sapiens, UniProt Q460N3); experiment: Selectivity profile (other isoforms of PARP and NRP family); assay type: biochemical
[26] = molecular target: MST1 (Homo sapiens, UniProt Q13043); experiment: Selectivity profile (123 kinase panel); assay type: biochemical
[27] = molecular target: EPHA7 (Homo sapiens, UniProt Q15375); experiment: Selectivity profile (123 kinase panel); assay type: biochemical
[28] = molecular target: FGFR1 (Homo sapiens, UniProt P11362); experiment: Selectivity profile (123 kinase panel); assay type: biochemical
[29] = molecular target: MLK1 (Homo sapiens, UniProt P80192); experiment: Selectivity profile (123 kinase panel); assay type: biochemical
Sequence of MLK1 (P80192 whole entry): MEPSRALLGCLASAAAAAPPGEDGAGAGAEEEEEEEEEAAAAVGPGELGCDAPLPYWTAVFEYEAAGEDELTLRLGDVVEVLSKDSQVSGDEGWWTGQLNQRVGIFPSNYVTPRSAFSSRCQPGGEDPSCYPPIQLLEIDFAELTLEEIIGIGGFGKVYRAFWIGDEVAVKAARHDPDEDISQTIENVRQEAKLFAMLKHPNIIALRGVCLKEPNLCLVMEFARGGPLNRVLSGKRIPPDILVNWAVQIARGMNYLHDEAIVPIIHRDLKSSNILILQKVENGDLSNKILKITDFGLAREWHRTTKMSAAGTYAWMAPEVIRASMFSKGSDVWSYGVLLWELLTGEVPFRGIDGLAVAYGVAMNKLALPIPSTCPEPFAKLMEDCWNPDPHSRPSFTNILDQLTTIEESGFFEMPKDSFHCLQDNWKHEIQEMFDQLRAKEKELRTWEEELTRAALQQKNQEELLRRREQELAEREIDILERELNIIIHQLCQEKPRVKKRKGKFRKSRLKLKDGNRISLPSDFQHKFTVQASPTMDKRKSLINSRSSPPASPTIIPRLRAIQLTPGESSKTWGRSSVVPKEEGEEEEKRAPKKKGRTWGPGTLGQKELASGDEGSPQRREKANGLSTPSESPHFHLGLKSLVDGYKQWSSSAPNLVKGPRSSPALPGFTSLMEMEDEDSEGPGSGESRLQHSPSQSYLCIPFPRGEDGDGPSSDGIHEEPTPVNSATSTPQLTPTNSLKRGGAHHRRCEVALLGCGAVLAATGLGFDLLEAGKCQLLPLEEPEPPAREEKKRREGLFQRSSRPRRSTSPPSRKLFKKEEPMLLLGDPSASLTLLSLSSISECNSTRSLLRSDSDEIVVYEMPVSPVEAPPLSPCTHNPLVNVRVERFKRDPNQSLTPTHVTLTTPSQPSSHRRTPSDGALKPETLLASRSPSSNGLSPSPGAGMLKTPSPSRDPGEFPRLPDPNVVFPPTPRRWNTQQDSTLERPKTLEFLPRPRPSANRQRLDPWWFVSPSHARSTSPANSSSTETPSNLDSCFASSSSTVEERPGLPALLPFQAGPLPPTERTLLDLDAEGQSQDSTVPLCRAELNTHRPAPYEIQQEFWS

[30] = molecular target: HIPK2 (Homo sapiens, UniProt Q9H2X6); experiment: Selectivity profile (123 kinase panel); assay type: biochemical
[31] = molecular target: CRAF (Homo sapiens, UniProt P04049, Y340D/Y341D); experiment: Selectivity profile (123 kinase panel); assay type: biochemical
[32] = molecular target: AurC (Homo sapiens, UniProt Q9UQB9); experiment: Selectivity profile (123 kinase panel); assay type: biochemical
Sequence of AurC (Q9UQB9 whole entry): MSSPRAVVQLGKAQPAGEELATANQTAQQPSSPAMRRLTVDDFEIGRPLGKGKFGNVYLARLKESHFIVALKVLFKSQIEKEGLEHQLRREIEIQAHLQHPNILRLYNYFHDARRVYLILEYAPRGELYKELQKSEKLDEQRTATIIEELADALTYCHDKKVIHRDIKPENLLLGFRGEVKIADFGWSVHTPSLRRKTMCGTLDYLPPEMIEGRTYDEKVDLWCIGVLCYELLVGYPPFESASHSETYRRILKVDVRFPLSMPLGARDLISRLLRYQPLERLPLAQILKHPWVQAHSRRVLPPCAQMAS

[33] = molecular target: MARK3 (Homo sapiens, UniProt P27448); experiment: Selectivity profile (123 kinase panel); assay type: biochemical
[34] = molecular target: CLK4 (Homo sapiens, UniProt Q9HAZ1); experiment: Selectivity profile (123 kinase panel); assay type: biochemical
Sequence of CLK4 (Q9HAZ1 whole entry): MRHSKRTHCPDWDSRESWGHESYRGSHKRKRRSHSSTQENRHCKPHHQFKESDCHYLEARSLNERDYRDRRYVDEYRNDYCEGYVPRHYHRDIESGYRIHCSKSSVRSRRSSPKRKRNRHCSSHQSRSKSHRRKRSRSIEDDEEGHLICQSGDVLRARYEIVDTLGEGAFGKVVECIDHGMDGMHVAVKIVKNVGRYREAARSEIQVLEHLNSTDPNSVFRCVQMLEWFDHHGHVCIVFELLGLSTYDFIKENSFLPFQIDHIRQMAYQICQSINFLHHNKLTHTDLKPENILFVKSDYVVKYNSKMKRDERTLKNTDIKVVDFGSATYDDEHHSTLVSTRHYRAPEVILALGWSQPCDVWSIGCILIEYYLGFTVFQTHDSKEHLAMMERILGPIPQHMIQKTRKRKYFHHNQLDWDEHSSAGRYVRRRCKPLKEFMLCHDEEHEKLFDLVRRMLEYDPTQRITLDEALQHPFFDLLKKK

Sequence of BLK (P51451 whole entry): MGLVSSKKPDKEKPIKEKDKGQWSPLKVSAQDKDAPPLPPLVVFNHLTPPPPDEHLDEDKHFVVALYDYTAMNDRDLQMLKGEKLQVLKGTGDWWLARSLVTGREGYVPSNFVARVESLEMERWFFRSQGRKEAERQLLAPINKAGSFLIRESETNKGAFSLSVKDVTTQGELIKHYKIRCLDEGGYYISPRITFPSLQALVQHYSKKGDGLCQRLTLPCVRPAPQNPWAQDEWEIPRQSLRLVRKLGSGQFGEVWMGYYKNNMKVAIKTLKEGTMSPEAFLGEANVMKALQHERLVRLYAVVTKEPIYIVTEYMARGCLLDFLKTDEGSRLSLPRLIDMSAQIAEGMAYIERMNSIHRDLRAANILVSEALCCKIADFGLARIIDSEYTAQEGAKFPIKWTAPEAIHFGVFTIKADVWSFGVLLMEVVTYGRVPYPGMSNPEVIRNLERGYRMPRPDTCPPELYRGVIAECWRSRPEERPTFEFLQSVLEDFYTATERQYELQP

IC50 [1]: > 10 µM
IC50 [2]: > 10 µM
IC50 [3]: > 10 µM
IC50 [4]: > 10 µM
IC50 [5]: > 10 µM
IC50 [6]: > 10 µM
IC50 [7]: > 10 µM
IC50 [8]: > 10 µM
IC50 [9]: > 10 µM
IC50 [10]: > 10 µM
IC50 [11]: > 10 µM
IC50 [12]: > 10 µM
IC50 [13]: > 10 µM
IC50 [14]: > 10 µM
IC50 [15]: > 10 µM
IC50 [16]: > 10 µM
bioavailability [23]: 66.5%
AUC ([23]; SD rats, p.o): 8020 ng·h/mL
Cmax ([23]; SD rats, p.o): 812 ng/mL
half-life ([23]; SD rats, p.o): 2.71 h
IC50 [24]: > 10 µM
IC50 [25]: > 10 µM
IC50 [26]: > 10 µM
IC50 [27]: > 10 µM
IC50 [28]: > 10 µM
IC50 [29]: > 10 µM
IC50 [30]: > 10 µM
IC50 [31]: > 10 µM
IC50 [32]: > 10 µM
IC50 [33]: > 10 µM
IC50 [34]: > 10 µM
Compound: NC(N)=NCCC[C@H](NCN1CCN(C(=O)c2cc(Cc3n[nH]c(=O)c4ccccc34)ccc2F)CC1)C(=O)O [PPNR-4]
IC50 [17]: > 10 µM
IC50 [18]: > 10 µM
IC50 [19]: > 10 µM
IC50 [20]: > 10 µM
IC50 [21]: > 10 µM
IC50 [22]: > 10 µM
